According to ChEMBL document CHEMBL3507680, “University of Dundee, Gates Library screen for HepG2 cell viability”:

Assay: Human HepG2 cell viability assay in 384 well format
Type: toxicity, cell-based
Design: dose 125 nL, time 70.5 hour; cytotoxicity at 70.5 h: concentration not given beside the values
Conditions: HepG2 cells, read-out: Inhibition

SMILES | cytotoxicity at 70.5 h [%]
C[S+]([O-])c1nncn1CC(=O)c1ccc2c(c1)CCO2 (configuration not stated) | -2.98
CC1CN=C(N2CCN(C(=O)Nc3nc(-c4ccccc4)ns3)CC2)S1 (configuration not stated) | 9.01
Cc1ccc(NC(=O)NC(C)c2nc[nH]n2)cc1 (configuration not stated) | -5.24
CC(C)(C)N1CCCN(C(=O)c2csc(S(N)(=O)=O)c2)CC1 | 15.7
Cc1cnc(CN2CCC(N(C)Cc3nnc(C4CC4)n3C)C2)cn1 (configuration not stated) | -11
CCCN1CCC(N(Cc2ncc(C)o2)C(C)=O)C1 (configuration not stated) | -8
CN(C)C(CNC(=O)NCCc1cccc(O)c1)c1ccco1 (configuration not stated) | -5.87
O=C(CCc1cc(F)ccc1F)NS(=O)(=O)c1ccc2c(c1)OCCO2 | 0.522
O=C(CCc1c(F)cccc1F)NS(=O)(=O)c1ccc2c(c1)OCCO2 | -6.92
O=C(CCc1ccccc1Br)NS(=O)(=O)c1ccc2c(c1)OCCO2 | -1.54
Cc1cn2nc(N3CCN(Cc4c(C)noc4C)CC3)sc2n1 | 0.994
Cc1cn2nc(N3CCN(Cc4nc(C(C)C)no4)CC3)sc2n1 | 19.7
COc1ccccc1C(=O)N1CCN(C(=O)Cc2ccccn2)CC1 | -6.85
Cc1ccc(C(=O)N2CCN(C(=O)Cc3ccccn3)CC2)c(C)c1 | -5.32
Cc1ccc(-c2nc(CN3CCCC(C(=O)N(C)C)C3)cs2)o1 (configuration not stated) | 1.88
Cc1nccn1C1CCCN(C(=O)CCNc2ncccn2)C1 (configuration not stated) | -3.44
CCc1nc(CN2CCCN(CC(O)c3ccccc3)CC2)no1 (configuration not stated) | -8.08
Cc1nn(C)c(N(C)C)c1CNCc1ccnc(N2CCCCC2)c1 | -2.08
CCC(O)CN1CCN(C(=O)c2ccn(C)c(=O)c2)CC1 (configuration not stated) | -9.11
COCc1nc(C(=O)N2CCCC2c2cc(C)on2)cs1 (configuration not stated) | -9.83
CCOc1cccc(C(=O)N2CCC(c3n[nH]c(C4CC4)n3)CC2)c1 | -8.11
CC(NC(=O)NCCCN(C)S(C)(=O)=O)c1cccnc1 (configuration not stated) | -7.17
COCc1nc(C(=O)N2CCCC2c2noc(C)n2)cs1 (configuration not stated) | -9.63
Cc1nn(C)c(N(C)C)c1CNCc1ccnc(N2CCCC2)c1 | -4.33

SMILES | cytotoxicity at 70.5 h [%]
O=C(CCc1nccs1)N1CCCC(n2ccnc2)C1 (configuration not stated) | -11.8
CS(=O)(=O)NCCCNC(=O)NCc1ccccc1 | -8.73
CC(=O)Nc1nc(C(=O)NCc2ccc(N3CCOC(C)C3)nc2)cs1 (configuration not stated) | -7.71
CC(=O)Nc1nc(C(=O)NCc2ccnc(N3CCCC3)c2)cs1 | -6.6
CC(=O)Nc1nc(C(=O)NCc2ccc(N3CCCC3)nc2)cs1 | -7.65
CC(NC(=O)NCCCN(C(C)C)S(C)(=O)=O)c1ccncc1 (configuration not stated) | -2.51
Cc1cccc(C(=O)NCc2ccc(N3CCCCCC3)nc2)n1 | -6.26
CC(NC(=O)NCCCN(C)S(C)(=O)=O)c1ccc(Cl)cc1 (configuration not stated) | -7.7
Cc1ccc(CNC(=O)CCNS(C)(=O)=O)cc1 | -5.54
COc1ccc(CNC(=O)NCCCNS(C)(=O)=O)cc1OC | -8.21
CN(C)c1ccc(C(=O)N2CCC(c3n[nH]c(C4CC4)n3)CC2)cc1 | -6.1
COc1cc(Cl)ccc1C(=O)NCc1nncn1C | -6.32
CCc1cccc(N2CCC(NC(=O)c3ccco3)CC2)c1 | -3.29
O=C(c1ccc2c(c1)CCC2)N1CCC(c2n[nH]c(C3CC3)n2)CC1 | -7.78
CC(=O)Nc1nc(C(=O)NCc2ccc(N3CCCCC3)cc2)cs1 | -3.91
Cc1cc(C)n(C2CN(CC(=O)NC(C3CC3)C3CC3)C2)n1 | -3.88
Cc1cc(C)n(C2CN(CCC(=O)NC3CCCCC3)C2)n1 | -4.9
Cc1cc(C)n(CC2CCCN2C(=O)c2cnccn2)n1 (configuration not stated) | 14.8
COc1ccccc1NC(=O)NCC(O)c1ccc(F)cc1F (configuration not stated) | 17.3
CCOc1c(Br)cc(/C=C/c2ncc(C(=O)O)s2)cc1OC | -11.1
Cn1cc(C(=O)NCC2CCN(C(=O)NC3CC3)CC2)cn1 | -19.1
Cc1cnn(C2CCCN(C(=O)c3ccc(Cn4ccnc4)cc3)C2)c1 (configuration not stated) | 17.4
COC(=O)C(c1cc(F)ccc1F)N(C)C(=O)c1cnc(C)cn1 (configuration not stated) | -9.59
Cc1ccc(NC2CCN(C(=O)COc3ccccc3)CC2)nn1 | -15.7

SMILES | cytotoxicity at 70.5 h [%]
Cc1ccc(NC2CCN(C(=O)COC3CCCC3)CC2)nn1 | -8.07
Cc1cc(NC(=O)CCN2CCCCC2Cn2cccn2)no1 (configuration not stated) | -11.9
COCCc1noc(CN2CCCC(Cn3cncn3)C2)n1 (configuration not stated) | -7.84
CCOc1ccc(C(=O)N2CCCCC2Cn2nc(C)cc2C)cn1 (configuration not stated) | 21
Cc1nn(C)c(C)c1C1CCCN1CC(=O)NCc1ccccn1 (configuration not stated) | -5.71
Cc1cc(C(=O)N2CCCC(n3cncn3)C2)nn1C (configuration not stated) | -10.8
Cc1cc(NC(=O)CCN2CCCC2Cn2cccn2)no1 (configuration not stated) | -6.26
Cc1nn(C)c(Cl)c1C1CCCN1Cc1ccccn1 (configuration not stated) | -7.44
O=C(c1ccnc(-n2ccnc2)c1)N1CCCC(n2cccn2)C1 (configuration not stated) | -2.44
Cn1cc(C(=O)CC2CCCN2C(=O)c2cccc3ncccc23)cn1 (configuration not stated) | 14.5
Cc1cc(C)n(CC2CCCN2C(=O)c2ccc3ccccc3n2)n1 (configuration not stated) | -10.7
COCCNC(=O)CN1CCCC1c1c(C)nn(C)c1Cl (configuration not stated) | -1.71
COc1ccc(C(=O)N2CCCC(n3cncn3)C2)nn1 (configuration not stated) | 10.5
CCc1ccccc1C(=O)N1CCCC1CC(=O)c1cnn(C)c1 (configuration not stated) | -13.4
c1ncn(CC2CN(CCCOc3ccc4c(c3)OCO4)CCO2)n1 (configuration not stated) | -4.94
Cc1nc(C)n(CC2CCCN(CCCc3ccccc3)C2)n1 (configuration not stated) | 4.81
COc1cccc(CNC(=O)c2cccnc2SC(C)C)c1 | -5.9
CC(NC(=O)Cn1cc(-c2ccccc2)cn1)C1CC1 (configuration not stated) | -6.64
Cc1cc(C)c(CNC(=O)N2CCCC2c2cccc(F)c2)c(=O)[nH]1 (configuration not stated) | 26
c1cc(CNCC2CNc3ccnn3C2)cc(N2CCOCC2)n1 (configuration not stated) | -5.11
c1cc(CNCC2CNc3ccnn3C2)cc(OC2CCCC2)n1 (configuration not stated) | -5.92
Cc1cc(C)c(CNC(=O)N2CCCC2c2ccccn2)c(=O)[nH]1 (configuration not stated) | -6.29
CCC(CC)NC(=O)Cn1cc(-c2ccccc2)cn1 | -2.71
COc1ccccc1OCCNC(=O)N1CCC(n2cncn2)CC1 | -4.48

SMILES | cytotoxicity at 70.5 h [%]
CCOc1ncccc1CNC(=O)N1CCC(n2cncn2)CC1 | -0.329
O=C1NCC(C(=O)Nc2ncc(Cc3cccc(F)c3)s2)N1 (configuration not stated) | -6.09
CC(C)c1cc(NC(=O)CNC2CCCN(c3cccnn3)C2)on1 (configuration not stated) | 3.11
Cc1nc(C)n(C2CCCN(C(=O)CCCNc3ncccn3)C2)n1 (configuration not stated) | -4.88
Cc1ccn(-c2ccc(C(=O)N3CCCC(n4ccnc4)C3)cc2)n1 (configuration not stated) | -22.3
Cn1nccc1C1CCN(CC(O)c2cccc(F)c2)CC1 (configuration not stated) | -8.37
CN(C)c1ncccc1CNC(=O)N1CCCC1CN1CCCCC1 (configuration not stated) | -32
O=C(CN1CCN(C(=O)Cc2ccc3c(c2)OCCO3)CC1)NC1CC1 | -12.7
c1ccc(Cn2cncn2)c(CNCC2CNc3ccnn3C2)c1 (configuration not stated) | -13.5
CC(=O)N1CCCN(C(=O)c2ccn(-c3cccc(Cl)c3)n2)CC1 | -26.5
COc1ccc(C(=O)N2CCCCC2Cn2cccn2)c(F)c1 (configuration not stated) | -13.3
CCn1ccnc1CN1CCOC(CNc2cccnn2)C1 (configuration not stated) | -9.35
Cc1cc(C(=O)NCc2ccnc(N(C)C)c2)c(C)o1 | -13.2
O=C(NCCN1CCCCCC1=O)c1n[nH]c(=O)c2ccccc12 | -20.8
CN(C)c1ncccc1CNC(=O)N1CCCC1c1ccsc1 (configuration not stated) | -16.3
O=C1OCCN1CCc1nc(-c2cc3c4c(c2)CC(=O)N4CCC3)cs1 | 10.6
c1ccc(Cn2cccn2)c(CNCC2CNc3ccnn3C2)c1 (configuration not stated) | -11.7
O=C(c1ccn(-c2cccc(Cl)c2)n1)N1CCN(C2CC2)CC1 | -0.559
COc1ccc2cc(C(=O)N3CCCCC3CC(N)=O)[nH]c2c1 (configuration not stated) | -15.1
Cc1cccc(-c2nc(CN3CCc4cnc(C)nc4C3)no2)c1 | -21.3
Cc1ncc2c(n1)CN(Cc1noc(C3CC3)n1)CC2 | 15.6
Cc1cc(C)n(C2CN(CC(O)c3ccc(F)cc3)C2)n1 (configuration not stated) | -10.7
COc1ncccc1CNc1cc(N2CCCC2CO)ncn1 (configuration not stated) | -12
Cc1cnc(CN2CCOC(CNc3cccnn3)C2)cn1 (configuration not stated) | -8.2

SMILES | cytotoxicity at 70.5 h [%]
CCN1CCC(NC(=O)CN2CCc3c(nc(C4CC4)n3C)C2)CC1 | -10.9
c1ccc(Cn2ccnc2CN2CCCC2c2noc(C3CC3)n2)cc1 (configuration not stated) | 8.17
O=C(NCC1CCSCC1)N(CCCO)C1CCc2ccccc21 (configuration not stated) | 24.2
CC(C)c1noc(CCCC(=O)NC2CCS(=O)(=O)C2)n1 (configuration not stated) | -0.791
CC(NC(=O)NCCCn1cncn1)c1ccccc1Cl (configuration not stated) | -2.04
CC(C)c1noc(CCC(=O)NCC2CCOC2)n1 (configuration not stated) | -2.41
COc1ccc(C)cc1C(C)NC(=O)NCCCn1cncn1 (configuration not stated) | -10.9
NC(=O)CN1CCCN(C(=O)Cc2ccc(F)c(Br)c2)CC1 | -8.24
O=C(NCCNC(=O)c1scnc1Cl)c1ccccc1 | -6.16
NC(=O)CN1CCCN(C(=O)Cc2ccc3c(c2)OCO3)CC1 | -2.14
Cn1ncc(C(=O)N2CCCC(n3cccn3)C2)c1C1CC1 (configuration not stated) | -4.62
c1ccc(-c2nc(CN3CCOC(Cn4cccn4)C3)no2)cc1 (configuration not stated) | 2.47
CC(C)c1nnc2n1CCN(C(=O)c1ccc3cc[nH]c3c1)C2 | 2.26
CCc1[nH]ncc1C(=O)N1CCCC(n2ccnc2C(C)C)C1 (configuration not stated) | 1.64
CC(C)c1nnc2n1CCN(C(=O)c1cccc(C(F)(F)F)c1)C2 | 6.51
c1ncn(CC2CN(Cc3noc(C4CC4)n3)CCO2)n1 (configuration not stated) | 29.1
CCc1ncc2c(n1)CN(CC(=O)Nc1nnc(C)s1)CC2 | -3.21
c1cnn(CC2CN(Cc3noc(C4CC4)n3)CCO2)c1 (configuration not stated) | -0.284
COc1ccc(CN(C)CC(=O)NC2(C)CCS(=O)(=O)C2)cc1F (configuration not stated) | -0.516
CCn1ccnc1CNCC1CCCN1c1cccnn1 (configuration not stated) | 5.62
CCCNCc1cn(C)nc1-c1cccnc1 | -7.26
